# Experimental data taken from patent US10253002B2, “Compounds and methods of treating infections” (Neoculi Pty Ltd., priority 2013, dated 2019).
# Where two headings read alike, the source gives them in different places.
# How the values were obtained:
# [1] = tested on: methicillin-resistant Staphylococcus aureus (MRSA); assay: Broth microdilution MIC (CLSI), Example 1; type: cell-based
# Procedure: Cation adjusted Mueller Hinton Broth (CAMHB) was prepared using 100 mL sterile Mueller Hinton broth (pH adjusted). To each 100 mL volume, 125 μL of calcium stock solution (10 mg Ca^2+ per ml) and 43 μL magnesium stock solution (10 mg Mg^2+ per mL) was aseptically added. Sufficient broth is made up for daily use, with unused portions being stored at 4° C. overnight.
# Potency was described as 1000 mg/g or 100%. The powder was dissolved in 10 mL DMSO and 1 mL volumes were aliquoted into eppendorf tubes and stored at −80° C.
# For Staphylococcus aureus, a working solution of 256 μg/mL was prepared by diluting stock solutions as described above 1:100 in CAMHB (100 μL into 9.9 mL).
# Serial dilutions were prepared in 96 well plates were set up in a safety cabinet according to methods standard in the art. Briefly: 90 μL of the working antibiotic solution was added to each well in Column 12 of the plate, and mixed well, before 90 μL was transferred to column 11. The solutions were mixed again, and then transferred to the next column as before, continuing the dilutions through to column 3. Mixing the well requires the pick up and expulsion of 90 μL in each well 3-4 times before picking up and transferring the 90 μL to the next well. […] The trays were set up as follows: 2 strains were tested in duplicate in one tray, such that strain 1 was located in rows A to D, strain 2 was located in rows E to H, etc.
# Fresh cultures of bacteria were prepared for testing on sheep blood agar (SBA), and overnight incubation at 37° C. as follows; 2-3 colonies of each strain in 7 mL sterile saline, and the OD600 measured as an indication of the density (approx. […] or 0.5 McFarland Standard). The bacterial suspension was adjusted to a final absorbance of 0.08 to 0.100, using saline to achieve correct density, and as the blank. Within 15 minutes of preparation, the adjusted bacterial suspension with sterile saline 1:20 (1 mL into 19 mL sterile saline) to achieve a final bacterial concentration of 4 to 5×10^6 CFU/mL. The bacterial solution was placed into a sterile trough and 10 μL of bacterial solution added into wells 2 through to 12 on each required row (dilution of 1:10, with final concentration of bacteria in wells=5×10^5 CFU/mL). The tray was sealed and incubated at 37° C. for 18-24 h. The purity of bacterial suspension was confirmed by streaking out 50 μL of the 1:20 dilution onto a SBA plate, which was incubated for 37° C. for 18 h and examined. Viable counts were carried out to ensure that the correct concentration of bacteria and been added to the wells. The diluted bacterial solution (4 to 5×10^6 CFU/mL) was diluted 1:10 downwards by adding 100 μL to 900 μL of sterile saline in sterile tubes, and the serial dilutions continued 1:10 for 5 tubes. 100 μL (4-5 drops) of the 4th and 5th dilutions (tube 4=105 and tube 5=10^6 CFU/ml) was plated around in duplicate on pre-dried PCA agar plates and incubated at 37° C. overnight. The following day the number of colonies on the plates was counted and the average count in 100 μL obtained. The study was multiplied by 10 to obtain a viable bacterial count per mL.
# Minimum inhibitory concentrations (μg/mL) were determined using the broth microdilution method recommended by the Clinical and Laboratory Standards Institute (CLSI) (Methods for Dilution Antimicrobial Susceptibility Tests for Bacteria That Grow Aerobically; Approved Standard—Seventh Edition. CLSI M7-A7, 2006; Performance Standards for Antimicrobial Disk and Dilution Susceptibility Tests for Bacteria Isolated from Animals; Approved Standard—Second Edition. CLSI M31-A2, 2002; Performance Standards for Antimicrobial Susceptibility Testing; CLSI M2-A9, 2006).
# MIC breakpoints were determined by visual assessment and then confirmed using an ELISA plate reader, measuring absorbance levels at 450 nm.
# [2] = tested on: S. pneumoniae strain D39; assay: microbe, parasite or virus in culture; type: cell-based; settings: Streptococcus pneumoniae
# Procedure: Macro-broth dilutions were prepared as above. […] Samples were centrifuged at a relative centrifugal force (RCF) of 101.45×g for 10 min and washed in 50 mL of phosphate buffered saline (PBS) twice to remove any residual antimicrobial, and/or bacterial end products and media. Washed bacteria were resuspended and MICs were performed.
# [3] = Solubility in DMSO and CAMHB, Example 4
# Source text: Test antimicrobials were selected on the basis of solubility and antimicrobial activity from preliminary studies.
# [4] = tested on: S. pneumoniae strain D39; assay: Macro-broth dilution time kill studies; type: cell-based, Streptococcus pneumoniae
# Procedure: Bacterial suspensions and working antibiotic stocks were prepared as described above. [For preparing macro-broth dilutions, 20 mL tubes were filled each with 9 mL of 4% LHB:CAMHB. 9 mL of a working antimicrobial stock was diluted 1:2 when added to one of the tubes, and then serial diluted down from a high to low concentration of antimicrobial. 1 mL of S. pneumoniae bacterial suspension was added to the appropriate tubes, including the positive control. […] At every 2-3 h during the first 12 h of growth and then at 24 h and 48 h, 50 μL of each bacterial suspension was spread plated onto HBA and incubated at 37° C. with 5% CO2 for 16-24 h.]
# Table 17 below indicates the concentrations used for each antimicrobial. Cultures were incubated at 37° C. in 5% CO2 with gentle manual tilting every 10 min for the first 12 h. Viable counts from 50 μL aliquots of each concentration were read following incubation at 37° C. in 5% CO2 for 24 h. The pH of each sample was measured at specific time points using pH indicator strips. Confluent growth was defined when more than 1000 colonies were counted per plate. A bactericidal effect was defined as a 1000 fold reduction (99.9%) of the original cell suspension determined at 24 h for each concentration.
# [5] = Staphylococcus aureus, MRSA, MRSA 616, Test 1, read-out: MIC
# [6] = Staphylococcus aureus, MRSA, MRSA 747, Test 1, read-out: MIC
structure (smiles),measurement,setting,value
CC1(C)S[C@@H]2[C@H](NC(=O)[C@H](N)c3ccccc3)C(=O)N2[C@H]1C(=O)O [Ampicillin],MIC90,"[1]; MRSA, 21 isolates",> 128 µg/mL
same,MIC90,"[1]; MRSA, Staphylococcus aureus isolates of Table 3, Test 1, read-out: MIC90",> 128 µg/mL
same,MIC90,"[1]; Staphylococcus aureus isolates of Table 3, Test 2",>128 µg/mL
same,MIC,"[1]; Staphylococcus aureus, ATCC 29213 / MRSA, S. aureus strain ATCC 29213, read-out: MIC of control strain (internal quality control)",2 µg/mL
same,MIC,"[1]; Staphylococcus aureus, ATCC 29213 / MRSA, Staph. aureus ATCC 29213, Test 1, read-out: MIC",2 µg/mL
same,MIC,"[1]; Staphylococcus aureus, ATCC 29213 / MRSA, Staph. aureus ATCC 29213, Test 2, read-out: MIC",2 µg/mL
same,MIC,"[1]; Staphylococcus aureus, MRSA, 21 isolates, read-out: MIC mode",> 128 µg/mL
same,MIC,"[1]; Staphylococcus aureus, MRSA, MRSA 516, Test 1, read-out: MIC",32 µg/mL
same,MIC,"[1]; Staphylococcus aureus, MRSA, MRSA 516, Test 2, read-out: MIC",32 µg/mL
same,MIC,"[1]; Staphylococcus aureus, MRSA, MRSA 570, Test 1, read-out: MIC",> 128 µg/mL
same,MIC,"[1]; Staphylococcus aureus, MRSA, MRSA 570, Test 2, read-out: MIC",> 128 µg/mL
same,MIC,"[1]; Staphylococcus aureus, MRSA, MRSA 580, Test 1, read-out: MIC",> 128 µg/mL
same,MIC,"[1]; Staphylococcus aureus, MRSA, MRSA 580, Test 2, read-out: MIC",> 128 µg/mL
same,MIC,"[1]; Staphylococcus aureus, MRSA, MRSA 606, Test 1, read-out: MIC",32 µg/mL
same,MIC,"[1]; Staphylococcus aureus, MRSA, MRSA 606, Test 2, read-out: MIC",32 µg/mL
same,MIC,"[1]; Staphylococcus aureus, MRSA, MRSA 610, Test 1, read-out: MIC",128 µg/mL
same,MIC,"[1]; Staphylococcus aureus, MRSA, MRSA 610, Test 2, read-out: MIC",128 µg/mL
same,MIC,[1]; [5],64 µg/mL
same,MIC,"[1]; Staphylococcus aureus, MRSA, MRSA 616, Test 2, read-out: MIC",64 µg/mL
same,MIC,"[1]; Staphylococcus aureus, MRSA, MRSA 622, Test 1, read-out: MIC",64 µg/mL
same,MIC,"[1]; Staphylococcus aureus, MRSA, MRSA 622, Test 2, read-out: MIC",64 µg/mL
same,MIC,"[1]; Staphylococcus aureus, MRSA, MRSA 698, Test 1, read-out: MIC",64 µg/mL
same,MIC,"[1]; Staphylococcus aureus, MRSA, MRSA 698, Test 2, read-out: MIC",64 µg/mL
same,MIC,"[1]; Staphylococcus aureus, MRSA, MRSA 713, Test 1, read-out: MIC",> 128 µg/mL
same,MIC,"[1]; Staphylococcus aureus, MRSA, MRSA 713, Test 2, read-out: MIC",> 128 µg/mL
same,MIC,"[1]; Staphylococcus aureus, MRSA, MRSA 718, Test 1, read-out: MIC",> 128 µg/mL
same,MIC,"[1]; Staphylococcus aureus, MRSA, MRSA 718, Test 2, read-out: MIC",> 128 µg/mL
same,MIC,"[1]; Staphylococcus aureus, MRSA, MRSA 728, Test 1, read-out: MIC",64 µg/mL
same,MIC,"[1]; Staphylococcus aureus, MRSA, MRSA 728, Test 2, read-out: MIC",64 µg/mL
same,MIC,"[1]; Staphylococcus aureus, MRSA, MRSA 734, Test 1, read-out: MIC",> 128 µg/mL
same,MIC,"[1]; Staphylococcus aureus, MRSA, MRSA 734, Test 2, read-out: MIC",> 128 µg/mL
same,MIC,"[1]; Staphylococcus aureus, MRSA, MRSA 741, Test 1, read-out: MIC",8 µg/mL
same,MIC,"[1]; Staphylococcus aureus, MRSA, MRSA 741, Test 2, read-out: MIC",8 µg/mL
same,MIC,[1]; [6],> 128 µg/mL
same,MIC,"[1]; Staphylococcus aureus, MRSA, MRSA 747, Test 2, read-out: MIC",> 128 µg/mL
same,MIC,"[1]; Staphylococcus aureus, MRSA, MRSA 773, Test 1, read-out: MIC",128 µg/mL
same,MIC,"[1]; Staphylococcus aureus, MRSA, MRSA 773, Test 2, read-out: MIC",64 µg/mL
same,MIC,"[1]; Staphylococcus aureus, MRSA, MRSA 778, Test 1, read-out: MIC",> 128 µg/mL
same,MIC,"[1]; Staphylococcus aureus, MRSA, MRSA 778, Test 2, read-out: MIC",> 128 µg/mL
same,MIC,"[1]; Staphylococcus aureus, MRSA, MRSA 786, Test 1, read-out: MIC",32 µg/mL
same,MIC,"[1]; Staphylococcus aureus, MRSA, MRSA 786, Test 2, read-out: MIC",64 µg/mL
same,MIC,"[1]; Staphylococcus aureus, MRSA, MRSA 787, Test 1, read-out: MIC",> 128 µg/mL
same,MIC,"[1]; Staphylococcus aureus, MRSA, MRSA 787, Test 2, read-out: MIC",> 128 µg/mL
same,MIC,"[1]; Staphylococcus aureus, MRSA, MRSA 815, Test 1, read-out: MIC",64 µg/mL
same,MIC,"[1]; Staphylococcus aureus, MRSA, MRSA 815, Test 2, read-out: MIC",64 µg/mL
same,MIC,"[1]; Staphylococcus aureus, MRSA, MRSA 823, Test 1, read-out: MIC",> 128 µg/mL
same,MIC,"[1]; Staphylococcus aureus, MRSA, MRSA 823, Test 2, read-out: MIC",> 128 µg/mL
same,MIC,"[1]; Staphylococcus aureus, MRSA, MRSA 844, Test 1, read-out: MIC",128 µg/mL
same,MIC,"[1]; Staphylococcus aureus, MRSA, MRSA 844, Test 2, read-out: MIC",128 µg/mL
same,MIC50,"[1]; Staphylococcus aureus, MRSA, 21 isolates",64 µg/mL
same,MBC,"[2]; D39, 6 h, read-out: MBC of D39 following exposure to NCL-812 for 6 hrs",0.023 µg/mL
same,MIC,"[2]; D39, 6 h, read-out: MIC of D39 following exposure to NCL-812 for 6 hrs.",0.045 µg/mL
same,MBC,"[2]; D39, read-out: Original MBC of D39",0.023 µg/mL
same,MIC,"[2]; D39, read-out: Original MIC of D39",0.023 µg/mL
"N=C(N/N=C/c1ccc(Cl)cc1)N/N=C/c1ccc(Cl)cc1 [NCL812, 1,3-bis[(E)-(4-chlorophenyl)methyleneamino]guanidine]",MIC,[1]; [5],8 µg/mL
same,MIC,[1]; [6],8 µg/mL
same,Solubility CAMHB,[3]; cation-adjusted Mueller-Hinton II broth,Cloudy precipitates
same,Solubility DMSO,[3]; dimethyl sulfoxide,Good
same,growth in viable counts,[4]; 2 μg/mL NCL812,Consistent confluent growth
same,time post-exposure at which compound appeared to be inactivated (increased growth after),[4]; NCL812 at 4 μg/mL and 8 μg/mL,11 h
same,time to eliminate bacterial growth,[4]; between 16 μg/mL and 64 μg/mL NCL812,≤ 8 h
